Source: US10934303B2, “Aryl ethene derivative and pharmaceutical composition containing same as active ingredient” (priority 2016, dated 2021)
Like-named read-outs stand apart in the source and are kept apart here.

Key:
[1] = 1 μM, 30 minutes, 37° C., NADPH
CYP2D6 = CYP2D6 (Homo sapiens (Human), UniProt P10635); assay: Cytochrome P450 activity inhibition, CYP2D6; format: in vitro ADME; details: 10 μM, human liver microsomes, Dextromethorphan substrate
Text: (§1) 1) Cytochrome P450 (CYP450) Activity Inhibition Evaluation

CYP3A4 = CYP3A4 (Homo sapiens (Human), UniProt P08684); assay: Cytochrome P450 activity inhibition, CYP3A4; format: in vitro ADME; details: 10 μM, human liver microsomes, Midazolam substrate
Chain of CYP3A4 (P08684 whole entry): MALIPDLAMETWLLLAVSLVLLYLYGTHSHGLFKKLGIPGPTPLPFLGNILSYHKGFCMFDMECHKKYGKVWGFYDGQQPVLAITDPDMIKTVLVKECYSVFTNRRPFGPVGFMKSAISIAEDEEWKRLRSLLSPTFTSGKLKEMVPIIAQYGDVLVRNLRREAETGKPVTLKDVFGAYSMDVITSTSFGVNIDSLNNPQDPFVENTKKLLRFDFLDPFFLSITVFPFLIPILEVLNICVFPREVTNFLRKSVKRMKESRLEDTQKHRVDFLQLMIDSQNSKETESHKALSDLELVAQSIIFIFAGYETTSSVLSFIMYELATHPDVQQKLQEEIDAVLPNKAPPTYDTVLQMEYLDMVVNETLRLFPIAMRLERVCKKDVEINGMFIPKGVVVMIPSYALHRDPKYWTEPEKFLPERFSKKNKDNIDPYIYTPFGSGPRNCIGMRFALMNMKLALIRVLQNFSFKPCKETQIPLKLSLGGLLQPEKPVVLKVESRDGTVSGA
Text: as §1

[2] = 1 μM, 30 minutes, 37° C., NADPH; remark: listed apart in the source
ERRβ = ERRβ (Homo sapiens, UniProt O95718); details: TR-FRET, PGC1a coactivator; read-out: Binding Assay, IC50 ERRβ
Chain of ERRβ (O95718 whole entry, looked up): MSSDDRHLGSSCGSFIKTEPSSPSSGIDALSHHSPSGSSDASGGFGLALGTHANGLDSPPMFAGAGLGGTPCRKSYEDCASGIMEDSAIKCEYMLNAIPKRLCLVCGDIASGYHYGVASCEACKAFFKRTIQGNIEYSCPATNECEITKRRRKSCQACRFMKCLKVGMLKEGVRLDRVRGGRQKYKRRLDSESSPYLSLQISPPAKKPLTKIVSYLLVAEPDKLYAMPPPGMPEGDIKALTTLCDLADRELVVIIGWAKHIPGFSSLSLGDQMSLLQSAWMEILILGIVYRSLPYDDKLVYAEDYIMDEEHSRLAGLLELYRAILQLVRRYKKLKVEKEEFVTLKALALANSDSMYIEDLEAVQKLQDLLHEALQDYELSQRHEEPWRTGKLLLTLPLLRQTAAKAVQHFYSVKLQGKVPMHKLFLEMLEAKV
Protocol: (§2) The arylethene derivative of the present invention was sequentially added to a 384 well plate from a concentration of 10 μM to a final concentration of two-fold dilution. […] After all reagents were added, a reaction was carried out with gentle shaking at 20° C. for 1 hour, and after the reaction, a binding activity was measured by a TR-FRET method.

CYP1A2 = CYP1A2 (Homo sapiens (Human), UniProt P05177); assay: Cytochrome P450 activity inhibition, CYP1A2; format: in vitro ADME; details: 10 μM, human liver microsomes, Phenacetin substrate
Chain of CYP1A2 (P05177 whole entry): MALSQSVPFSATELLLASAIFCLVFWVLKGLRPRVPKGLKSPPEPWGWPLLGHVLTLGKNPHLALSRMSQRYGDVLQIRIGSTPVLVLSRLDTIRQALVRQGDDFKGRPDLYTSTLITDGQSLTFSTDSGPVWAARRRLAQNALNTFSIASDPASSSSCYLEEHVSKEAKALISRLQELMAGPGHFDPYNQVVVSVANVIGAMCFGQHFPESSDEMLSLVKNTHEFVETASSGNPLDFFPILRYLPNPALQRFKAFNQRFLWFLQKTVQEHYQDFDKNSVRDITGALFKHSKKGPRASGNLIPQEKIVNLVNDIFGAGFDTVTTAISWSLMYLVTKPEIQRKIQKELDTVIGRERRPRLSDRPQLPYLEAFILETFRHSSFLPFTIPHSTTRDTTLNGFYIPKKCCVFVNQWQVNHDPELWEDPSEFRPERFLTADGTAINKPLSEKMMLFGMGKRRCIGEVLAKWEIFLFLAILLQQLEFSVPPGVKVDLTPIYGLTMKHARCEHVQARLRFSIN
Text: as §1

CYP2C9 = CYP2C9 (Homo sapiens (Human), UniProt P11712); assay: Cytochrome P450 activity inhibition, CYP2C9; format: in vitro ADME; details: 10 μM, human liver microsomes, Diclofenac substrate
Chain of CYP2C9 (P11712 whole entry): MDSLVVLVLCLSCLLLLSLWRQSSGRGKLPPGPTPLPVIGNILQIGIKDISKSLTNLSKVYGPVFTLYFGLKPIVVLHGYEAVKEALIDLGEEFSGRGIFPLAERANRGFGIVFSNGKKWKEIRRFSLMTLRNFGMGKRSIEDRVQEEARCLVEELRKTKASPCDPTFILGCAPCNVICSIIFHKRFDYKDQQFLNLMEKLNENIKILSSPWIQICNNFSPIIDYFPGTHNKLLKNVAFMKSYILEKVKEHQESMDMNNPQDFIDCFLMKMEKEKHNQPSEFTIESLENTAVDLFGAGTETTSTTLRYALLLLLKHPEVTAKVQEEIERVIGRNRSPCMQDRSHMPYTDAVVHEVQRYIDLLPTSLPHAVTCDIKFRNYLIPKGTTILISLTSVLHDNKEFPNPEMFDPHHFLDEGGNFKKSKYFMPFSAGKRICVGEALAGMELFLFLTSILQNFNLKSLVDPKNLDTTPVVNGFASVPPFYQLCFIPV
Text: as §1

ERRγ = format: cell-based
CYP2C19 = CYP2C19 (Homo sapiens (Human), UniProt P33261); assay: Cytochrome P450 activity inhibition, CYP2C19; format: in vitro ADME; details: 10 μM, human liver microsomes, S-mephenytoin substrate
Chain of CYP2C19 (P33261 whole entry): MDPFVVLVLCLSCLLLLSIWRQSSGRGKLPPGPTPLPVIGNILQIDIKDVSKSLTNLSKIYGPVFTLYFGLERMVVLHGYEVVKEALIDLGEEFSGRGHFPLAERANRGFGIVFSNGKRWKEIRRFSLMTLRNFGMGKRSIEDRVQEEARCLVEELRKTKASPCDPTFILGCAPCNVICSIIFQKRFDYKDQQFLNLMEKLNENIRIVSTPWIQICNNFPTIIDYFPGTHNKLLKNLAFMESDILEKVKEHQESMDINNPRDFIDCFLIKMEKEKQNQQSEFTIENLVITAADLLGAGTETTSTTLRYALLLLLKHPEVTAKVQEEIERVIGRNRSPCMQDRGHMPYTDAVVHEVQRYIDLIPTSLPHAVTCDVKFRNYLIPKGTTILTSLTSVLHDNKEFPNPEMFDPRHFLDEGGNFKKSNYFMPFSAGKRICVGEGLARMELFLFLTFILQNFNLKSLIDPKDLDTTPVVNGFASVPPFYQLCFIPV
Text: as §1

[3] = 1 μM, 30 minutes, 37° C., NADPH; remark: listed apart in the source
Protocol: 2) Microsomal Stability Evaluation
Four liver microsomes (Human, Dog, Rat, Mouse 0.5 mg/ml) with a 0.1 M phosphate buffer solution (pH 7.4), and the arylethene derivative of the present invention were added to a concentration of 1 μM, culturing was performed at 37° C. for 5 minutes in advance, a NADPH regeneration system solution was added thereto, and culturing was performed at 37° C. for 30 minutes. Thereafter, in order to complete the reaction, an acetonitrile solution containing an internal standard material (chlorpropamide) was added thereto, centrifugation (14,000 rpm, 4° C.) was performed for 5 minutes, and a supernatant was injected into a LC-MS/MS system to analyze the substrate drug, thereby evaluating metabolism stability to the arylethene derivative of the present invention.

[4] = molecular target: GST-bound ER alpha ligand-binding domain (LBD) (Homo sapiens (Human), UniProt P03372); assay: biochemical; details: TR-FRET, beta-estradiol 4 nM as agonist; read-out: Binding Assay, IC50 ERα
Chain of GST-bound ER alpha ligand-binding domain (LBD) (P03372 whole entry, looked up, the tested form may be a part): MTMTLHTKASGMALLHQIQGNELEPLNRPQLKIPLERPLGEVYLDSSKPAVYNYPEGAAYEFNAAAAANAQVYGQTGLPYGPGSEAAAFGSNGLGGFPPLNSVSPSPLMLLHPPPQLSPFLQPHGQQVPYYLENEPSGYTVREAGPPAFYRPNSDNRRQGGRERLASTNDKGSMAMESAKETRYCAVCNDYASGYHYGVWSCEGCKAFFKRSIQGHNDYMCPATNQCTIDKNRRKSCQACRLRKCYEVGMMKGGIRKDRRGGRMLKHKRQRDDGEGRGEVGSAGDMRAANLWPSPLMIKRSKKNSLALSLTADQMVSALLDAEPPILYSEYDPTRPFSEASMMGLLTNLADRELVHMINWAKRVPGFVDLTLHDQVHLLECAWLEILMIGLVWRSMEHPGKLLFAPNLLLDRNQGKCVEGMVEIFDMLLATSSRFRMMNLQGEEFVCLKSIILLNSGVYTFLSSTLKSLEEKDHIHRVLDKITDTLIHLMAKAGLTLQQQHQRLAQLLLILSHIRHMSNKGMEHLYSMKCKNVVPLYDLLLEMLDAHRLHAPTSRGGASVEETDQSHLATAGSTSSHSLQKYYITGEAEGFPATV
Protocol: as §2

[5] = molecular target: GST-bound ERR gamma ligand-binding domain (LBD) (Homo sapiens (Human), UniProt P62508); assay: ERRγ binding assay (inverse agonist assay), TR-FRET; details: TR-FRET, PGC1a coactivator; read-out: Binding Assay, IC50 ERRγ
Chain of GST-bound ERR gamma ligand-binding domain (LBD) (P62508 233-457): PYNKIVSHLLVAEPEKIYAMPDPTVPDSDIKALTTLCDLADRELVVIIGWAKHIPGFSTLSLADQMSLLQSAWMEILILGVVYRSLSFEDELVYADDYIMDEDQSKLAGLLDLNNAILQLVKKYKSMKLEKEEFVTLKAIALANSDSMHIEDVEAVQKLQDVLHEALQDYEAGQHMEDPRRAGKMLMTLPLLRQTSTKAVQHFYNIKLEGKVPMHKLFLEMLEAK
Protocol: 1) ERRγ Binding Assay (Inverse Agonist Assay)
as §2

[6] = tested on: CAL-62 anaplastic thyroid cancer cell line; format: cell-based
hERG channel = hERG channel (Homo sapiens (Human), UniProt Q12809); assay: biochemical
in vitro = in vitro ADME; set-up: Papp at 5 h: dose or concentration left out as unconfirmed; details: PAMPA, PBS pH 7.4, 25° C., read-out: Permeability Pampa
[7] = 1 μM, 30 minutes, 37° C., NADPH; remark: listed apart in the source
pERK1/2 = assay: Western blot, phosphorylated ERK1/2 in CAL62 cells; format: cell-based; details: MEK inhibitor
GST-bound ERR alpha LBD = GST-bound ERR alpha LBD (Homo sapiens (Human), UniProt P11474); details: TR-FRET, PGC1a coactivator; read-out: Binding Assay, IC50 ERRα
Chain of GST-bound ERR alpha LBD (P11474 193-421): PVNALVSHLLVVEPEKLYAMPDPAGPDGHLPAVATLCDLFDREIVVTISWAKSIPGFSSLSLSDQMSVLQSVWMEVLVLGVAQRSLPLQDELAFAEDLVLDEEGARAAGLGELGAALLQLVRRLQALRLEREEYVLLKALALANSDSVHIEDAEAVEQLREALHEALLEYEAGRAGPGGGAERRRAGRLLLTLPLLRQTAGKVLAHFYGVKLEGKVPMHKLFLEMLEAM
Protocol: as §2

in vivo = format: in vivo; details: rat
[8] = activity relative to reference compound GSK5182, 10 μM

Chain of CYP2D6 (P10635 whole entry): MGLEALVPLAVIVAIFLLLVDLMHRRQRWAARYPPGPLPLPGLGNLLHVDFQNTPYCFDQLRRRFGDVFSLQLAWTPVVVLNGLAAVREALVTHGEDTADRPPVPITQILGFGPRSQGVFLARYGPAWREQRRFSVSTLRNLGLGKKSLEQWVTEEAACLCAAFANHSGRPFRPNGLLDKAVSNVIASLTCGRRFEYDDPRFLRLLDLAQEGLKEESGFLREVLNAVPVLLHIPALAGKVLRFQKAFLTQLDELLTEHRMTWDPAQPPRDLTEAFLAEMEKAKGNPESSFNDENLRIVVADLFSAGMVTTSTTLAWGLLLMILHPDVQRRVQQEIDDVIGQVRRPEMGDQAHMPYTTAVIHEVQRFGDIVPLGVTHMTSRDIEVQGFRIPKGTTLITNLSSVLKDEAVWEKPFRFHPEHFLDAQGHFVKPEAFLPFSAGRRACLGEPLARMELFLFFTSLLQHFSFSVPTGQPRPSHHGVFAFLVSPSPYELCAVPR

OCCC/C(=C(\c1ccc(O)cc1)c1ccc(OCCN2C[C@H]3C[C@H]3[C@H]2CO)cc1)c1ccccc1 [Compound 38d]
MS(Microsomal Stability) (%) mouse [1]: 11.8%
CYP inhibition (% of control) 2D6 (CYP2D6): 54.3 % of control
CYP inhibition (% of control) 3A4 (CYP3A4): 57.6 % of control
MS(Microsomal Stability) (%) rat [2]: 11.7%
IC50 (ERRβ): 8.8 µM
CYP inhibition (% of control) 1A2 (CYP1A2): 79.2 % of control
CYP inhibition (% of control) 2C9 (CYP2C9): 55.3 % of control
Functional Assay at 10 μM (% of control), Cpds (ERRγ; 10 μM, 24 hours, AD293): 3.16 % of control
Functional Assay, Cpds/Ref 5182 (ERRγ; [8]): 0.77
CYP inhibition (% of control) 2C19 (CYP2C19): 58.8 % of control
MS(Microsomal Stability) (%) human [3]: 6.9%
IC50 [4]: 0.276 µM
IC50 [5]: 0.083 µM

[K+].[O-][Cl+3]([O-])([O-])[O-] [KClO4]
block of radioactive iodine uptake increased in compound 18a-treated cells ([6]; co-incubated with compound 18a-treated CAL62 cells, 300 μM KClO4): completely blocks

Nc1ccc(/C(=C(\CCCO)c2ccccc2)c2ccc(C3CCN(C4CC4)CC3)cc2)cc1 [Compound 26d]
MS(Microsomal Stability) (%) mouse [1]: 38.3%
IC50 (hERG channel): 26 µM
CYP inhibition (% of control) 2D6 (CYP2D6): 86.1 % of control
CYP inhibition (% of control) 3A4 (CYP3A4): 57.3 % of control
Papp at 5 h (in vitro): 1.04 ×10⁻⁶ cm/s
MS(Microsomal Stability) (%) rat [2]: 72.2%
CYP inhibition (% of control) 1A2 (CYP1A2): >100 % of control
MS(Microsomal Stability) (%) dog [7]: 51.5%
CYP inhibition (% of control) 2C9 (CYP2C9): 96.6 % of control
CYP inhibition (% of control) 2C19 (CYP2C19): >100 % of control
MS(Microsomal Stability) (%) human [3]: 77.5%

N#CC(=C(/N)Sc1ccccc1N)/C(C#N)=C(\N)Sc1ccccc1N [Compound U0126]
inhibition of radioactive iodine uptake increase by compound 18a ([6]; MEK inhibitor pre-incubation 30 minutes): completely inhibited
inhibition of relative increase of phosphorylated ERK1 and ERK2 by compound 18a (pERK1/2): completely inhibited

CC(C)N1CCC(c2ccc(/C(=C(/CCCO)c3ccccc3)c3cccc(O)c3)cc2)CC1 [Compound 22m]
IC50 (GST-bound ERR alpha LBD): > 10 µM
MS(Microsomal Stability) (%) mouse [1]: 24.2%
CYP inhibition (% of control) 2D6 (CYP2D6): 70.7 % of control
CYP inhibition (% of control) 3A4 (CYP3A4): 58.1 % of control
MS(Microsomal Stability) (%) rat [2]: 53.5%
IC50 (ERRβ): 7.82 µM
CYP inhibition (% of control) 1A2 (CYP1A2): 97 % of control
MS(Microsomal Stability) (%) dog [7]: 55.0%
CYP inhibition (% of control) 2C9 (CYP2C9): 80.3 % of control
CYP inhibition (% of control) 2C19 (CYP2C19): >100 % of control
AUCINF (in vivo; IV, 1 mg/kg): 0.00 μMh
AUCall (in vivo; IV, 1 mg/kg): 0.34 μMh
Vss (in vivo; IV, 1 mg/kg): 19.9 L/kg
t1/2 (in vivo; IV, 1 mg/kg): 2.4 h
AUCINF (in vivo; PO, 10 mg/kg): 0.00 μMh
AUCall (in vivo; PO, 10 mg/kg): 0.73 μMh
BA (in vivo; PO, 10 mg/kg): 24.3%
Tmax (in vivo; PO, 10 mg/kg): 2.4 h
t1/2 (in vivo; PO, 10 mg/kg): 4.3 h
Cmax (in vivo; PO, 10 mg/kg, read-out: Cmax): 130 nM
MS(Microsomal Stability) (%) human [3]: 55.3%
IC50 [4]: > 10 µM

CN1CCN(c2ccc(/C(=C(/CCCO)c3ccccc3)c3ccc(N)cc3)cc2)CC1 [Compound 26a, (Z)-5-(4-aminophenyl)-5-(4-(4-methylpiperazin-1-yl)phenyl)-4-phenylpent-4-en-1-ol]
IC50 (hERG channel): > 30 µM
Papp at 5 h (in vitro): 1.58 ×10⁻⁶ cm/s
MS(Microsomal Stability) (%) rat [2]: 46.7%
CYP inhibition (% of control) 1A2 (CYP1A2): >100 % of control
Functional Assay at 10 μM (% of control), Cpds (ERRγ; 10 μM, 24 hours, AD293): 2.66 % of control
Functional Assay, Cpds/Ref 5182 (ERRγ; [8]): 0.84
CYP inhibition (% of control) 2C19 (CYP2C19): 89 % of control
MS(Microsomal Stability) (%) human [3]: 72.3%

COc1cccc(-c2cc(=O)c3ccccc3o2)c1N [PD98059]
inhibition of radioactive iodine uptake increase by compound 18a [6]: completely inhibited
inhibition of relative increase of phosphorylated ERK1 and ERK2 by compound 18a (pERK1/2): completely inhibited

OCCC/C(=C(\c1ccc(O)cc1)c1ccc(N2CCNCC2)cc1)c1ccccc1 [Compound 20j]
IC50 (GST-bound ERR alpha LBD): > 10 µM
MS(Microsomal Stability) (%) mouse [1]: 25.3%
CYP inhibition (% of control) 2D6 (CYP2D6): 89.3 % of control
CYP inhibition (% of control) 3A4 (CYP3A4): 66.2 % of control
MS(Microsomal Stability) (%) rat [2]: 84.5%
IC50 (ERRβ): 4.93 µM
CYP inhibition (% of control) 1A2 (CYP1A2): 93.6 % of control
MS(Microsomal Stability) (%) dog [7]: 68.3%
CYP inhibition (% of control) 2C9 (CYP2C9): 77.1 % of control
Functional Assay at 10 μM (% of control), Cpds (ERRγ; 10 μM, 24 hours, AD293): 1.41 % of control
Functional Assay, Cpds/Ref 5182 (ERRγ; [8]): 1.38
CYP inhibition (% of control) 2C19 (CYP2C19): 62 % of control
MS(Microsomal Stability) (%) human [3]: 76.8%
IC50 [4]: 0.992 µM

OCCC/C(=C(\c1ccc(O)cc1)c1ccc(OCCN2CC2)cc1)c1ccccc1 [Compound 6f]
IC50 (GST-bound ERR alpha LBD): > 10 µM
IC50 (hERG channel): > 30 µM
Functional Assay at 10 μM (% of control), Cpds (ERRγ; 10 μM, 24 hours, AD293): 6.75 % of control
Functional Assay, Cpds/Ref 5182 (ERRγ; [8]): 2.19
IC50 [4]: 0.296 µM
IC50 [5]: 0.059 µM

OCCC/C(=C(\c1ccc(O)cc1)c1ccc(OCCN2CCC[C@@H]2CO)cc1)c1ccccc1 [Compound 38c]
IC50 (GST-bound ERR alpha LBD): > 10 µM
CYP inhibition (% of control) 2D6 (CYP2D6): 54.3 % of control
CYP inhibition (% of control) 3A4 (CYP3A4): 61.5 % of control
IC50 (ERRβ): > 10 µM
CYP inhibition (% of control) 1A2 (CYP1A2): 79.2 % of control
CYP inhibition (% of control) 2C9 (CYP2C9): 55.3 % of control
Functional Assay, Cpds/Ref 5182 (ERRγ): 0.99
Functional Assay at 10 μM (% of control), Cpds (ERRγ; 10 μM, 24 hours, AD293): 4.06 % of control
CYP inhibition (% of control) 2C19 (CYP2C19): 58.8 % of control
IC50 [4]: 0.408 µM
IC50 [5]: 0.091 µM

OCCC/C(=C(\c1ccc(O)cc1)c1ccc(OCCN2CC3CC3C2)cc1)c1ccccc1 (stereo not shown) [Compound 38a, (Z)-4-(1-(4-(2-(3-azabicyclo[3.1.0]hexan-3-yl)ethoxy)phenyl)-5-hydroxy-2-phenylpent-1-en-1-yl)phenol]
IC50 (GST-bound ERR alpha LBD): > 10 µM
IC50 (hERG channel): 16.1 µM
IC50 (ERRβ): 8.13 µM
Functional Assay at 10 μM (% of control), Cpds (ERRγ; 10 μM, 24 hours, AD293): 1.45 % of control
Functional Assay, Cpds/Ref 5182 (ERRγ; [8]): 1.42
IC50 [4]: 0.437 µM
IC50 [5]: 0.079 µM

OCCC/C(=C(\c1ccc(O)cc1)c1ccc(OCCN2CCCCC2)cc1)c1ccccc1 [Compound 6d]
IC50 (GST-bound ERR alpha LBD): > 10 µM
IC50 (hERG channel): > 30 µM
Functional Assay, Cpds/Ref 5182 (ERRγ): 1.69
Functional Assay at 10 μM (% of control), Cpds (ERRγ; 10 μM, 24 hours, AD293): 5.2 % of control
IC50 [4]: 0.262 µM
IC50 [5]: 0.093 µM

CN1CCC[C@@H]1COc1ccc(/C(=C(/CCCO)c2ccccc2)c2ccc(O)cc2)cc1 [Compound 6i]
IC50 (hERG channel): > 30 µM
Functional Assay at 10 μM (% of control), Cpds (ERRγ): 5 % of control
Functional Assay, Cpds/Ref 5182 (ERRγ): 1.62
